# Reference: patent publication EP0297159A1, “[N-Acyl, 1,7-Di-Aline] calcitonins, method for their preparation, pharmaceutical compositions and use” (Armour Pharmaceutical Company, priority 1987, dated 1989)
# Where a SMILES comes first, the peptide text is derived from it. The star is where a group is joined. Propionyl = CCC(=O)*
# System: serum calcium concentration
# Details: rat, in vivo, sc
# Method: Rats were divided into four groups of seven animals, and each group was assigned at random to a dose of standard or test solution. Low and high doses were chosen from the linear portion of the dose-response curve. For the salmon calcitonin standard, the values were 0.7 and 2.1 mcg. peptide/100 g. body weight (BW). This dose approximates 3 and 9 MU/100 g. BW. Peptides were given by subcutaneous injection (0.2 ml./100 g. BW) and blood was withdrawn 1 hour later for serum calcium determination. Sera are processed and analyzed within two hours of collection.
smiles,measurement,value
"CCC(=O)N[C@@H](C)C(=O)N[C@@H](CO)C(=O)N[C@@H](CC(N)=O)C(=O)N[C@@H](CC(C)C)C(=O)N[C@@H](CO)C(=O)N[C@H](C(=O)N[C@@H](C)C(=O)N[C@H](C(=O)N[C@@H](CC(C)C)C(=O)NCC(=O)N[C@@H](CCCCN)C(=O)N[C@@H](CC(C)C)C(=O)N[C@@H](CO)C(=O)N[C@@H](CCC(N)=O)C(=O)N[C@@H](CCC(=O)O)C(=O)N[C@@H](CC(C)C)C(=O)N[C@@H](Cc1c[nH]cn1)C(=O)N[C@@H](CCCCN)C(=O)N[C@@H](CC(C)C)C(=O)N[C@@H](CCC(N)=O)C(=O)N[C@H](C(=O)N[C@@H](Cc1ccc(O)cc1)C(=O)N1CCC[C@H]1C(=O)N[C@@H](CCCNC(=N)N)C(=O)N[C@H](C(=O)N[C@@H](CC(N)=O)C(=O)N[C@H](C(=O)NCC(=O)N[C@@H](CO)C(=O)NCC(=O)N[C@H](C(=O)N1CCC[C@H]1C(N)=O)[C@@H](C)O)[C@@H](C)O)[C@@H](C)O)[C@@H](C)O)C(C)C)[C@@H](C)O [[N^α-Propionyl-Di-Ala^1,7]SCT, [N^α-Propionyl, 1,7-Di-Alanine]salmon calcitonin] (Propionyl-ASNLSTAVLGKLSQELHKLQTYPRTNTGSGTP-NH2)",biological potency,5450 IU/mg
